Test results taken from ChEMBL document CHEMBL3046109, “A Method for Monitoring the Sensitivity of Botrytis cinerea to Mepanipyrim” (2004).

Legend:
Format in all cases: functional
Botrytis cinerea [1] = assay: Fungicidal activity against anilinopyrimidine-sensitive Botryotinia fuckeliana KU-59 isolated from grape plant assessed as inhibition of mycelial growth at 30 mg/l after 4 days; details: KU-59, 96 h, read-out: GI
Botrytis cinerea [2] = assay: Fungicidal activity against anilinopyrimidine-sensitive Botryotinia fuckeliana KU-59 isolated from grape plant assessed as inhibition of mycelial growth at 10 mg/l after 4 days; details: KU-59, 96 h, read-out: GI
Botrytis cinerea [3] = assay: Fungicidal activity against anilinopyrimidine-sensitive Botryotinia fuckeliana KU-59 isolated from grape plant assessed as inhibition of mycelial growth at 3 mg/l after 4 days; details: KU-59, 96 h, read-out: GI
Botrytis cinerea [4] = assay: Fungicidal activity against anilinopyrimidine-sensitive Botryotinia fuckeliana KU-59 isolated from grape plant assessed as inhibition of mycelial growth at 1 mg/l after 4 days; details: KU-59, 96 h, read-out: GI
Botrytis cinerea [5] = assay: Fungicidal activity against anilinopyrimidine-sensitive Botryotinia fuckeliana KU-59 isolated from grape plant assessed as inhibition of mycelial growth at 0.3 mg/l after 4 days; details: KU-59, 96 h, read-out: GI
Botrytis cinerea [6] = assay: Fungicidal activity against anilinopyrimidine-sensitive Botryotinia fuckeliana KU-59 isolated from grape plant assessed as inhibition of mycelial growth at 0.1 mg/l after 4 days; details: KU-59, 96 h, read-out: GI
Botrytis cinerea [7] = assay: Fungicidal activity against anilinopyrimidine-sensitive Botryotinia fuckeliana KU-01 isolated from grape plant assessed as inhibition of mycelial growth at 100 mg/l after 4 days; details: KU-01, 96 h, read-out: GI
Botrytis cinerea [8] = assay: Fungicidal activity against anilinopyrimidine-sensitive Botryotinia fuckeliana KU-01 isolated from grape plant assessed as inhibition of mycelial growth at 30 mg/l after 4 days; details: KU-01, 96 h, read-out: GI
Botrytis cinerea [9] = assay: Fungicidal activity against anilinopyrimidine-sensitive Botryotinia fuckeliana KU-01 isolated from grape plant assessed as inhibition of mycelial growth at 10 mg/l after 4 days; details: KU-01, 96 h, read-out: GI
Botrytis cinerea [10] = assay: Fungicidal activity against anilinopyrimidine-sensitive Botryotinia fuckeliana KU-01 isolated from grape plant assessed as inhibition of mycelial growth at 3 mg/l after 4 days; details: KU-01, 96 h, read-out: GI
Botrytis cinerea [11] = assay: Fungicidal activity against anilinopyrimidine-sensitive Botryotinia fuckeliana KU-01 isolated from grape plant assessed as inhibition of mycelial growth at 1 mg/l after 4 days; details: KU-01, 96 h, read-out: GI
Botrytis cinerea [12] = assay: Fungicidal activity against anilinopyrimidine-sensitive Botryotinia fuckeliana KU-59 infected in strawberry fruit assessed as inhibition of mycelial growth at 200 mg/l treated 2-3 hr before challenge measured after 5 days; details: read-out: GI
Botrytis cinerea [13] = assay: Fungicidal activity against anilinopyrimidine-sensitive Botryotinia fuckeliana KU-59 infected in strawberry fruit assessed as inhibition of mycelial growth at 100 mg/l treated 2-3 hr before challenge measured after 5 days; details: read-out: GI
Botrytis cinerea [14] = assay: Fungicidal activity against anilinopyrimidine-sensitive Botryotinia fuckeliana KU-59 infected in strawberry fruit assessed as inhibition of mycelial growth at 50 mg/l treated 2-3 hr before challenge measured after 5 days; details: read-out: GI
Botrytis cinerea [15] = assay: Fungicidal activity against anilinopyrimidine-sensitive Botryotinia fuckeliana KU-01 infected in strawberry fruit assessed as inhibition of mycelial growth at 200 mg/l treated 2-3 hr before challenge measured after 5 days; details: read-out: GI
Botrytis cinerea [16] = assay: Fungicidal activity against anilinopyrimidine-sensitive Botryotinia fuckeliana KU-01 infected in strawberry fruit assessed as inhibition of mycelial growth at 100 mg/l treated 2-3 hr before challenge measured after 5 days; details: read-out: GI
Botrytis cinerea [17] = assay: Fungicidal activity against anilinopyrimidine-sensitive Botryotinia fuckeliana KU-01 infected in strawberry fruit assessed as inhibition of mycelial growth at 50 mg/l treated 2-3 hr before challenge measured after 5 days; details: read-out: GI
Botrytis cinerea [18] = assay: Fungicidal activity against anilinopyrimidine-resistant Botryotinia fuckeliana CH164.94 infected in strawberry fruit assessed as inhibition of mycelial growth at 200 mg/l treated 2-3 hr before challenge measured after 5 days; details: read-out: GI
Botrytis cinerea [19] = assay: Fungicidal activity against anilinopyrimidine-resistant Botryotinia fuckeliana CH164.94 infected in strawberry fruit assessed as inhibition of mycelial growth at 100 mg/l treated 2-3 hr before challenge measured after 5 days; details: read-out: GI
Botrytis cinerea [20] = assay: Fungicidal activity against anilinopyrimidine-resistant Botryotinia fuckeliana CH164.94 infected in strawberry fruit assessed as inhibition of mycelial growth at 50 mg/l treated 2-3 hr before challenge measured after 5 days; details: read-out: GI
Botrytis cinerea [21] = assay: Fungicidal activity against anilinopyrimidine-resistant Botryotinia fuckeliana CH15.93 infected in strawberry fruit assessed as inhibition of mycelial growth at 200 mg/l treated 2-3 hr before challenge measured after 5 days; details: read-out: GI
Botrytis cinerea [22] = assay: Fungicidal activity against anilinopyrimidine-resistant Botryotinia fuckeliana CH15.93 infected in strawberry fruit assessed as inhibition of mycelial growth at 100 mg/l treated 2-3 hr before challenge measured after 5 days; details: read-out: GI
Botrytis cinerea [23] = assay: Fungicidal activity against anilinopyrimidine-resistant Botryotinia fuckeliana CH15.93 infected in strawberry fruit assessed as inhibition of mycelial growth at 50 mg/l treated 2-3 hr before challenge measured after 5 days; details: read-out: GI
Botrytis cinerea [24] = assay: Fungicidal activity against anilinopyrimidine-resistant Botryotinia fuckeliana CH12.92 infected in strawberry fruit assessed as inhibition of mycelial growth at 200 mg/l treated 2-3 hr before challenge measured after 5 days; details: read-out: GI
Botrytis cinerea [25] = assay: Fungicidal activity against anilinopyrimidine-resistant Botryotinia fuckeliana CH12.92 infected in strawberry fruit assessed as inhibition of mycelial growth at 100 mg/l treated 2-3 hr before challenge measured after 5 days; details: read-out: GI

## CC#Cc1cc(C)nc(Nc2ccccc2)n1 [MEPANIPYRIM]
Botrytis cinerea [1]
  inhibition of growth at 30 µg/mL: 100%
Botrytis cinerea [2]
  inhibition of growth at 10 µg/mL: 100%
Botrytis cinerea [3]
  inhibition of growth at 3 µg/mL: 100%
Botrytis cinerea [4]
  inhibition of growth at 1 µg/mL: 100%
Botrytis cinerea [5]
  inhibition of growth at 0.3 µg/mL: 100%
Botrytis cinerea [6]
  inhibition of growth at 0.1 µg/mL: 86.4%
Botrytis cinerea [7]
  inhibition of growth at 100 µg/mL: 100%
Botrytis cinerea [8]
  inhibition of growth at 30 µg/mL: 100%
Botrytis cinerea [9]
  inhibition of growth at 10 µg/mL: 100%
Botrytis cinerea [10]
  inhibition of growth at 3 µg/mL: 100%
Botrytis cinerea [11]
  inhibition of growth at 1 µg/mL: 100%
Botrytis cinerea [12]
  inhibition of growth at 200 µg/mL: 100%
Botrytis cinerea [13]
  inhibition of growth at 100 µg/mL: 100%
Botrytis cinerea [14]
  inhibition of growth at 50 µg/mL: 100%
Botrytis cinerea [15]
  inhibition of growth at 200 µg/mL: 100%
Botrytis cinerea [16]
  inhibition of growth at 100 µg/mL: 100%
Botrytis cinerea [17]
  inhibition of growth at 50 µg/mL: 100%
Botrytis cinerea [18]
  inhibition of growth at 200 µg/mL: 0%
Botrytis cinerea [19]
  inhibition of growth at 100 µg/mL: 0%
Botrytis cinerea [20]
  inhibition of growth at 50 µg/mL: 0%
Botrytis cinerea [21]
  inhibition of growth at 200 µg/mL: 0%
Botrytis cinerea [22]
  inhibition of growth at 100 µg/mL: 0%
Botrytis cinerea [23]
  inhibition of growth at 50 µg/mL: 0%
Botrytis cinerea [24]
  inhibition of growth at 200 µg/mL: 0%
Botrytis cinerea [25]
  inhibition of growth at 100 µg/mL: 0%
